In patent US6429215B1, “N-oxide of heterocyclic ester, amide, thioester, or ketone hair growth compositions and uses” (GPI NIL Holdings, Inc., priority 1998, dated 2002) one finds Ki data, which are given here for 1 substance.

The assay deals with FKBP12 (Homo sapiens, UniProt P62942). Briefly: Inhibition of peptidyl-prolyl isomerase (rotamase) activity, apparent Ki. The following applies: chymotrypsin-coupled assay, N-succinyl-Ala-Ala-Pro-Phe-p-nitroanilide, pH 7.8. It is filed as biochemical. The text has this:
The inhibition of the prolyl peptidyl cis-trans isomerase activity of FKBP may be measured as an indicator of this affinity.
Inhibition of the peptidyl-prolyl isomerase (rotamase) activity of the compounds used in the inventive methods and pharmaceutical compositions can be evaluated by known methods described in the literature (Harding et al., Nature, 1989, 341:758-760; Holt et al. J. Am. Chem. Soc., 115:9923-9938). These values are obtained as apparent Ki's and are presented for representative compounds in TABLE II.
The cis-trans isomerization of an alanine-proline bond in a model substrate, N-succinyl-Ala-Ala-Pro-Phe-p-nitroanilide, is monitored spectrophotometrically in a chymotrypsin-coupled assay, which releases paranitroanilide from the trans form of the substrate. The inhibition of this reaction caused by the addition of different concentrations of inhibitor is determined, and the data is analyzed as a change in first-order rate constant as a function of inhibitor concentration to yield the apparent Ki values. […]
The absorbance at 390 nm versus time is monitored for 90 seconds using a spectrophotometer and the rate constants are determined from the absorbance versus time data files.

Sequence of FKBP12 (P62942 whole entry, species assumed): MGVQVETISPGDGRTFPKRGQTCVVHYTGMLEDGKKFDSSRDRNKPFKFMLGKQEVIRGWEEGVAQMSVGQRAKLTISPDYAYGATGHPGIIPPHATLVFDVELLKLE

Regarding “3-(3-Pyridyl)-1-propyl (2S)-1-(3,3-Dimethyl-1,2-dioxopentyl)-2-pyrrolidinecarboxylate, N-oxide [Compound 1]”, the Ki stood at 225 nM.
